US10336761B2, “TGFβ receptor antagonist” (BRISTOL-MYERS SQUIBB COMPANY, priority 2015, dated 2019)

Target: HIS-TGFβR1 T204D (Homo sapiens (Human), UniProt P36897, T204D)
Experiment: HTRF probe-displacement assay, HIS-TGFβR1 T204D
Assay type: binding
Details: 1 hour at room temperature

Sequence of HIS-TGFβR1 T204D (P36897 34-503 T204D): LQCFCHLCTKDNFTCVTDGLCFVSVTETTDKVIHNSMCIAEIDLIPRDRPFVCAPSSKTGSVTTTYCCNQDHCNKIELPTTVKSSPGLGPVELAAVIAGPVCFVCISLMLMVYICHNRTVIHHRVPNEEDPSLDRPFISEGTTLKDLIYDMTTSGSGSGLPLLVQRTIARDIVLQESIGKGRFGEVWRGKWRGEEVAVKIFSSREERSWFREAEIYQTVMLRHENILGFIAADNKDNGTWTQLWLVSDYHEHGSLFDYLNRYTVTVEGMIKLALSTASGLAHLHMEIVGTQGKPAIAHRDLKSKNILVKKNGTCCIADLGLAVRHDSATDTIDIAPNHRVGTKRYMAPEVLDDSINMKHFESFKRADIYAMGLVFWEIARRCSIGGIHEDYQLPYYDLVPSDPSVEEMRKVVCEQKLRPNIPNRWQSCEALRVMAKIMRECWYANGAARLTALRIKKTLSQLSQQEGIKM

SMILES	IC50
COc1cccc(-c2nc(Nc3ccncc3F)c3c(C(O)CN4CCN(C)CC4)ccn3n2)n1 (centres unmarked) [Example 128, 1-{4-[(3-fluoropyridin-4-yl)amino]-2-(6-methoxypyridin-2-yl)pyrrolo[2,1-f][1,2,4]triazin-5-yl}-2-(4-methylpiperazin-1-yl)ethan-1-ol]	950 nM
O=c1[nH]c2ccccc2n1C1CCN(Cc2ccn3nc(-c4ccccn4)nc(Nc4ccncc4F)c23)CC1 [Example 278, 1-[1-({4-[(3-fluoropyridin-4-yl)amino]-2-(pyridin-2-yl)pyrrolo[2,1-f][1,2,4]triazin-5-yl}methyl)piperidin-4-yl]-2,3-dihydro-1H-1,3-benzodiazol-2-one]	1.8 nM
O=C(NC1CCC(F)(F)CC1)c1cnccc1Nc1nc(-c2cccc(C(F)F)n2)nn2cccc12 [Example 201, N-(4,4-difluorocyclohexyl)-4-({2-[6-(difluoromethyl)pyridin-2-yl]pyrrolo[2,1-f][1,2,4]triazin-4-yl}amino)pyridine-3-carboxamide]	410 nM
O=C(NCCCN1CCCC1)c1cnccc1Nc1nc(-c2cccc(C(F)(F)F)n2)nn2cccc12 [Example 37]	47 nM
COc1cccc(-c2nc(Nc3ccnc(NCCN4CCC(O)CC4)c3)c3cccn3n2)n1 [Example 132, 1-{2-[(4-{[2-(6-methoxypyridin-2-yl)pyrrolo[2,1-f][1,2,4]triazin-4-yl]amino}pyridin-2-yl)amino]ethyl}piperidin-4-ol]	700 nM
COc1cccc(-c2nc(Nc3ccncc3F)c3cc(/C=C/CCO)cn3n2)n1 [Example 211, (3E)-4-{4-[(3-fluoropyridin-4-yl)amino]-2-(6-methoxypyridin-2-yl)pyrrolo[2,1-f][1,2,4]triazin-6-yl}but-3-en-1-ol]	30 nM
O=C(NCCN1CCCCC1)c1cnccc1Nc1nc(-c2cccc(C(F)(F)F)n2)nn2cccc12 [Example 171, N-[2-(piperidin-1-yl)ethyl]-4-({2-[6-(trifluoromethyl)pyridin-2-yl]pyrrolo[2,1-f][1,2,4]triazin-4-yl}amino)pyridine-3-carboxamide]	120 nM
COC(=O)Nc1cc2c(Nc3ccncc3F)nc(-c3cccc(OC)n3)nn2c1 [Example 73, Methyl N-{4-[(3-fluoropyridin-4-yl)amino]-2-(6-methoxypyridin-2-yl)pyrrolo[2,1-f][1,2,4]triazin-6-yl}carbamate]	74 nM
O=C(c1cnccc1Nc1nc(-c2cccc(C(F)F)n2)nn2cccc12)N1CCC(F)(F)CC1 [Example 203, N-{2-[6-(difluoromethyl)pyridin-2-yl]pyrrolo[2,1-f][1,2,4]triazin-4-yl}-3-(4,4-difluoropiperidine-1-carbonyl)pyridin-4-amine]	750 nM
COc1cccc(-c2nc(Nc3ccncc3F)c3cc(N)cn3n2)n1 [Example 103, 4-N-(3-fluoropyridin-4-yl)-2-(6-methoxypyridin-2-yl)pyrrolo[2,1-f][1,2,4]triazine-4,6-diamine]	140 nM
O=C(NCc1nc[nH]n1)c1cnccc1Nc1nc(-c2cccc(C(F)F)n2)nn2cccc12 [Example 191, 4-({2-[6-(difluoromethyl)pyridin-2-yl]pyrrolo[2,1-f][1,2,4]triazin-4-yl}amino)-N-(1H-1,2,4-triazol-3-ylmethyl)pyridine-3-carboxamide]	64 nM
C[C@@H]1CN(CCNC(=O)c2cnccc2Nc2nc(-c3ccccn3)nn3cccc23)C[C@H](C)O1 [Example 146, N-{2-[cis-2,6-dimethylmorpholin-4-yl]ethyl}-4-{[2-(pyridin-2-yl)pyrrolo[2,1-f][1,2,4]triazin-4-yl]amino}pyridine-3-carboxamide]	170 nM
Cc1cccc(-c2nc(Nc3ccncc3OCCCN3CCOCC3)c3cccn3n2)n1 [Example 222, N-[2-(6-methylpyridin-2-yl)pyrrolo[2,1-f][1,2,4]triazin-4-yl]-3-[3-(morpholin-4-yl)propoxy]pyridin-4-amine]	67 nM
COc1cccc(-c2nc(Nc3ccnc(N4CCOCC4)c3)c3cccn3n2)n1 [Example 99, N-[2-(6-methoxypyridin-2-yl)pyrrolo[2,1-f][1,2,4]triazin-4-yl]-2-(morpholin-4-yl)pyridin-4-amine]	2900 nM

Second part, the molecule after the results:

IC50	SMILES
17 nM	O=C(NCCN1CCCC1)c1cnccc1Nc1nc(-c2cccc(C(F)(F)F)n2)nn2cccc12 [Example 170, N-[2-(pyrrolidin-1-yl)ethyl]-4-({2-[6-(trifluoromethyl)pyridin-2-yl]pyrrolo[2,1-f][1,2,4]triazin-4-yl}amino)pyridine-3-carboxamide]
21 nM	O=C(NC1CCOC1)c1cnccc1Nc1nc(-c2cccc(C(F)F)n2)nn2cccc12 (centres unmarked) [Example 177, 4-({2-[6-(difluoromethyl)pyridin-2-yl]pyrrolo[2,1-f][1,2,4]triazin-4-yl}amino)-N-(oxolan-3-yl)pyridine-3-carboxamide]
9.1 nM	COc1cccc(-c2nc(Nc3ccncc3C(N)=O)c3cccn3n2)n1 [Example 98, 4-{[2-(6-methoxypyridin-2-yl)pyrrolo[2,1-f][1,2,4]triazin-4-yl]amino}pyridine-3-carboxamide]
10 nM	Cc1cccc(-c2nc(Nc3ccncc3)c3cc(C(N)=O)cn3n2)n1 [Example 219, 2-(6-methylpyridin-2-yl)-4-[(pyridin-4-yl)amino]pyrrolo[2,1-f][1,2,4]triazine-6-carboxamide]
0.58 nM	OC1CCN(Cc2ccn3nc(-c4ccccn4)nc(Nc4ccncc4F)c23)CC1 [Example 243, 1-({4-[(3-fluoropyridin-4-yl)amino]-2-(pyridin-2-yl)pyrrolo[2,1-f][1,2,4]triazin-5-yl}methyl)piperidin-4-ol]
2.9 nM	Fc1cnccc1Nc1nc(-c2ccccn2)nn2ccc(CNCC3CCNCC3)c12 [Example 238, 3-fluoro-N-(5-{[(piperidin-4-ylmethyl)amino]methyl}-2-(pyridin-2-yl)pyrrolo[2,1-f][1,2,4]triazin-4-yl)pyridin-4-amine]
0.93 nM	O[C@H]1CCN(Cc2ccn3nc(-c4ccccn4)nc(Nc4ccncc4F)c23)C1 [Example 232, (3S)-1-({4-[(3-fluoropyridin-4-yl)amino]-2-(pyridin-2-yl)pyrrolo[2,1-f][1,2,4]triazin-5-yl}methyl)pyrrolidin-3-ol]
21 nM	CC(C)(O)CCNC(=O)c1cnccc1Nc1nc(-c2cccc(C(F)F)n2)nn2cccc12 [Example 187, 4-({2-[6-(difluoromethyl)pyridin-2-yl]pyrrolo[2,1-f][1,2,4]triazin-4-yl}amino)-N-(3-hydroxy-3-methylbutyl)pyridine-3-carboxamide]
0.79 nM	Fc1cccc(-c2nc(Nc3ccncc3F)c3cccn3n2)n1 [Example 14, 3-fluoro-N-[2-(6-fluoropyridin-2-yl)pyrrolo[2,1-f][1,2,4]triazin-4-yl]pyridin-4-amine]
0.27 nM	CC1(NCc2ccn3nc(-c4ccccn4)nc(Nc4ccncc4F)c23)CCC1 [Example 241, 3-fluoro-N-(5-{[(1-methylcyclobutyl)amino]methyl}-2-(pyridin-2-yl)pyrrolo[2,1-f][1,2,4]triazin-4-yl)pyridin-4-amine]
0.92 nM	Cc1csc(-c2nc(Nc3ccncc3Cl)c3cccn3n2)n1 [Example 87, 3-chloro-N-[2-(4-methyl-1,3-thiazol-2-yl)pyrrolo[2,1-f][1,2,4]triazin-4-yl]pyridin-4-amine]
1.6 nM	Fc1cnccc1Nc1nc(-c2ccccn2)nn2ccc(CNCCCn3ccnc3)c12 [Example 281, 3-fluoro-N-[5-({[3-(1H-imidazol-1-yl)propyl]amino}methyl)-2-(pyridin-2-yl)pyrrolo[2,1-f][1,2,4]triazin-4-yl]pyridin-4-amine]
10 nM	O=C(CN1CC[C@H](O)C1)Nc1cc(Nc2nc(-c3cccc(C(F)(F)F)n3)nn3cccc23)ccn1 [Example 325, 2-[(3S)-3-hydroxypyrrolidin-1-yl]-N-[4-({2-[6-(trifluoromethyl)pyridin-2-yl]pyrrolo[2,1-f][1,2,4]triazin-4-yl}amino)pyridin-2-yl]acetamide]
1.6 nM	Clc1cnccc1Nc1nc(-c2ccccn2)nn2cccc12 [Example 54, 3-chloro-N-[2-(pyridin-2-yl)pyrrolo[2,1-f][1,2,4]triazin-4-yl]pyridin-4-amine]
3.7 nM	Fc1cnccc1Nc1nc(-c2cccc(C(F)(F)F)n2)nn2cccc12 [Example 84, 3-fluoro-N-{2-[6-(trifluoromethyl)pyridin-2-yl]pyrrolo[2,1-f][1,2,4]triazin-4-yl}pyridin-4-amine]
6.8 nM	Cc1cccc(-c2nc(Nc3ccncc3C(=O)NCCN3CCCCC3)c3cccn3n2)n1 [Example 155, 4-{[2-(6-methylpyridin-2-yl)pyrrolo[2,1-f][1,2,4]triazin-4-yl]amino}-N-[2-(piperidin-1-yl)ethyl]pyridine-3-carboxamide]
< 0.76 nM	CC1(NCc2ccn3nc(-c4ccccn4)nc(Nc4ccncc4F)c23)CCOCC1 [Example 242, 3-fluoro-N-(5-{[(4-methyloxan-4-yl)amino]methyl}-2-(pyridin-2-yl)pyrrolo[2,1-f][1,2,4]triazin-4-yl)pyridin-4-amine]
4 nM	Cc1cccc(-c2nc(Nc3ccncc3C(=O)NCCCN3CCCC3)c3cccn3n2)n1 [Example 221, 4-{[2-(6-methylpyridin-2-yl)pyrrolo[2,1-f][1,2,4]triazin-4-yl]amino}-N-[3-(pyrrolidin-1-yl)propyl]pyridine-3-carboxamide]
0.85 nM	O[C@@H]1CCN(Cc2ccn3nc(-c4ccccn4)nc(Nc4ccncc4F)c23)C1 [Example 233, (3R)-1-({4-[(3-fluoropyridin-4-yl)amino]-2-(pyridin-2-yl)pyrrolo[2,1-f][1,2,4]triazin-5-yl}methyl)pyrrolidin-3-ol]
1.7 nM	OCC(CO)NCc1ccn2nc(-c3ccccn3)nc(Nc3ccncc3F)c12 [Example 264, 2-[({4-[(3-fluoropyridin-4-yl)amino]-2-(pyridin-2-yl)pyrrolo[2,1-f][1,2,4]triazin-5-yl}methyl)amino]propane-1,3-diol]
1.2 nM	Fc1cnccc1Nc1nc(-c2ccccn2)nn2ccc(CN3CCOCC3)c12 [Example 290, 3-fluoro-N-[5-(morpholin-4-ylmethyl)-2-(pyridin-2-yl)pyrrolo[2,1-f][1,2,4]triazin-4-yl]pyridin-4-amine]
